Laboratory results taken from patent publication US9573987B2 (priority 2011, dated 2017).
“And” between values parts separate entries of the source, which are not always exact repeats. Identical values can stand only once. Like-named read-outs stand apart in the source and are kept apart here.

Experiments:
IR-A = IR-A (Homo sapiens, UniProt P06213); experiment: In vitro activity of pegylated analogs relative to native insulin at IR-A
[1] = tested on: human mammary epithelial cells (HMEC); experiment: Human mammary epithelial cells proliferation ([14C]-thymidine); format: cell-based
Description: The plate was incubated 4 h at 37° C., 5% CO2 and 90% humidity.

IR-B = IR-B (Homo sapiens, UniProt P06213); experiment: In vitro activity of pegylated analogs relative to native insulin at IR-B
insulin receptor [2] = molecular target: T1, insulin receptor (Homo sapiens, UniProt P06213); experiment: Insulin receptor phosphorylation assay, receptor transfected HEK293 cells; format: cell-based; set-up: expressed in transfected cells; host or cells: HEK293; settings: Table 10; for EC50: Insulin Receptor EC50:, total phosphorylation
Description: (§1) Color development was stopped 5 min later by adding 0.05 ml 1 N HCl. Absorbance at 450 nm was measured on Titertek Multiscan MCC340 (ThermoFisher, Pittsburgh, Pa.).

IGF-1 receptor [3] = molecular target: T2, IGF-1 receptor (Homo sapiens, UniProt P08069); experiment: IGF-1 receptor binding assay (competition, scintillation proximity); set-up: expressed in transfected cells; plasma membrane fragments; settings: for IGF-1 Receptor % IGF-1 (in test): Table 9
insulin receptor [4] = molecular target: T1, insulin receptor; experiment: Insulin receptor binding assay (competition, scintillation proximity); set-up: expressed in transfected cells; plasma membrane fragments; settings: for Ratio: IGF-1 receptor IC50 over insulin receptor IC50; for Insulin Receptor % insulin (in test) / Insulin Receptor % native insulin activity (0.6 nM): Table 9
IGF-1 receptor [5] = molecular target: T2, IGF-1 receptor; experiment: IGF-1 receptor phosphorylation assay, receptor transfected HEK293 cells; format: cell-based; set-up: expressed in transfected cells; host or cells: HEK293
Description: as §1

[6] = molecular target: T3, insulin subtype A receptor (IR-A) (Homo sapiens, UniProt P06213); experiment: Insulin subtype A receptor phosphorylation, receptor transfected HEK293 cells; format: cell-based; settings: FIGS. 21, 23
T3 construct: expressed in transfected cells; host or cells: HEK293
Description: (§2) Color development was stopped 5 min later by adding 0.05 ml 1 N HCl. Absorbance at 450 nm was measured on Titertek Multiscan MCC340 (ThermoFisher, Pittsburgh, Pa.). […]

[7] = molecular target: insulin subtype B receptor (IR-B) (Homo sapiens, UniProt P06213); experiment: Insulin subtype B receptor phosphorylation, receptor transfected HEK293 cells; format: cell-based; set-up: expressed in transfected cells; host or cells: HEK293
Description: as §2

[8] = Table 15, read-out: Proliferation HMEC EC50
[9] = total phosphorylation, Table 10

B^1(H5,Y16,L17)25-C^1(K8)-A^1(N18,21) (GPEHLCGAELVDALYLVCGDRGFYGYGSSSRKAPQTGIVDECCFRSCDLRRLENYCN) [MIU-67, two 10K PEG chains, at the N-terminus and at position C8 of the linking moiety]
% Insulin Activity IR-A (IR-A): 0.2%

Insulin: native human insulin, 51 amino acid heteroduplex of A chain SEQ ID NO: 1 and B chain SEQ ID NO: 2 [reference compound]
EC50 [1, 8]: 23.4 nM
EC50 ([1]; average measured potency at 24, 48, 72 and 96 hours, read-out: EC50): 6.16 nM

B^1(H5, H10, Y16, L17)25-C^1-A^1 (H8, N18, N21) (GPEHLCGAHLVDALYLVCGDRGFYGYGSSSRRAPQTGIVDECCHRSCDLRRLENYCN) [MIU-35]
% Insulin Activity IR-B (IR-B): 17.4%
% Insulin Activity IR-A (IR-A): 61.4%

B^1(H5,Y16,L17)25-C^1-A^1(N18,21) (GPEHLCGAELVDALYLVCGDRGFYGYGSSSRRAPQTGIVDECCFRSCDLRRLENYCN) [MIU-57, single chain analog with 20 kDa PEG linked to the N-terminus of the B chain]
% Insulin Activity IR-B (IR-B): 1.1%
% Insulin Activity IR-A (IR-A): 3.1%

CC[C@H](C)[C@H](NC(=O)CN)C(=O)N[C@H](C(=O)N[C@@H](CC(=O)O)C(=O)N[C@@H](CCC(=O)O)C(=O)N[C@H]1CSSC[C@@H]2NC(=O)[C@H](CO)NC(=O)[C@H](CCCNC(=N)N)NC(=O)[C@H](Cc3ccccc3)NC(=O)[C@H](CSSC[C@H](NC(=O)[C@H](CC(C)C)NC(=O)[C@@H](NC(=O)[C@H](CCC(=O)O)NC(=O)[C@@H]3CCCN3C(=O)CN)[C@@H](C)O)C(=O)NCC(=O)N[C@@H](C)C(=O)N[C@@H](CCC(=O)O)C(=O)N[C@@H](CC(C)C)C(=O)N[C@@H](C(C)C)C(=O)N[C@@H](CC(=O)O)C(=O)N[C@@H](C)C(=O)N[C@@H](CC(C)C)C(=O)N[C@@H](Cc3ccc(O)cc3)C(=O)N[C@@H](CC(C)C)C(=O)N[C@@H](C(C)C)C(=O)N[C@H](C(=O)NCC(=O)N[C@@H](CC(=O)O)C(=O)N[C@@H](CCCNC(=N)N)C(=O)NCC(=O)N[C@@H](Cc3ccccc3)C(=O)N[C@@H](Cc3ccc(O)cc3)C(=O)N[C@@H](Cc3ccccc3)C(=O)N[C@@H](CC(N)=O)C(=O)N[C@@H](CCCCN)C(=O)N3CCC[C@H]3C(=O)N[C@H](C(=O)N[C@@H](CCC(=O)O)C(=O)N[C@@H](CCC(=O)O)C(=O)O)[C@@H](C)O)CSSC[C@@H](C(=O)N[C@@H](C)C(N)=O)NC(=O)[C@H](Cc3ccc(O)cc3)NC(=O)[C@H](CCSC)NC(=O)[C@H](CCC(=O)O)NC(=O)[C@H](CC(C)C)NC(=O)[C@H](CCCNC(=N)N)NC(=O)[C@H](CCCNC(=N)N)NC(=O)[C@H](CC(C)C)NC(=O)[C@H](CC(=O)O)NC2=O)NC1=O)C(C)C [IGF-1 A:B(E10 Y16L17)-E31E3 2B-COOH]
EC50 (insulin receptor [2]): 7 nM and 8.52 nM
Insulin Receptor % Insulin (insulin receptor [2]): 18.1% and 31.7%
IGF-1 Receptor % IGF-1 (in test) (IGF-1 receptor [3]): 3.0%
Ratio (insulin receptor [4]): 14.3
Insulin Receptor % insulin (in test) (insulin receptor [4]): 36.5%
Insulin Receptor % native insulin activity (0.6 nM) (insulin receptor [4]): 50.0%

B^1(H5,Y16,L17, K22)25-C^1(K8)-A^1(N18,21) (GPEHLCGAELVDALYLVCGDKGFYGYGSSSRKAPQTGIVDECCFRSCDLRRLENYCN) [MIU-68, two 10K PEG chains, at the N-terminus and at amino acid B22]
% Insulin Activity IR-A (IR-A): 0.4%

CC[C@H](C)[C@H](NC(=O)CN)C(=O)N[C@H](C(=O)N[C@@H](CC(=O)O)C(=O)N[C@@H](CCC(=O)O)C(=O)N[C@H]1CSSC[C@@H]2NC(=O)[C@H](CO)NC(=O)[C@H](C)NC(=O)[C@H](Cc3c[nH]cn3)NC(=O)[C@H](CSSC[C@H](NC(=O)[C@H](CC(C)C)NC(=O)[C@H](Cc3c[nH]cn3)NC(=O)[C@H](CCC(=O)O)NC(=O)[C@@H]3CCCN3C(=O)CN)C(=O)NCC(=O)N[C@@H](C)C(=O)N[C@@H](CC(=O)O)C(=O)N[C@@H](CC(C)C)C(=O)N[C@@H](C(C)C)C(=O)N[C@@H](CC(=O)O)C(=O)N[C@@H](C)C(=O)N[C@@H](CC(C)C)C(=O)N[C@@H](Cc3ccc(O)cc3)C(=O)N[C@@H](CC(C)C)C(=O)N[C@@H](C(C)C)C(=O)N[C@H](C(=O)NCC(=O)N[C@@H](CC(=O)O)C(=O)N[C@@H](CCCNC(=N)N)C(=O)NCC(=O)N[C@@H](Cc3ccccc3)C(=O)N[C@@H](Cc3ccc(O)cc3)C(N)=O)CSSC[C@@H](C(=O)N[C@@H](CC(N)=O)C(=O)O)NC(=O)[C@H](Cc3ccc(O)cc3)NC(=O)[C@H](CCSC)NC(=O)[C@H](CCC(=O)O)NC(=O)[C@H](CC(C)C)NC(=O)[C@H](CCCNC(=N)N)NC(=O)[C@H](CCCNC(=N)N)NC(=O)[C@H](CC(C)C)NC(=O)[C@H](CC(=O)O)NC2=O)NC1=O)C(C)C
EC50 (insulin receptor [2]): 0.15 nM and 0.25 nM
Insulin Receptor % Insulin (insulin receptor [2]; listed as IGF-1 A (H8 A9 N21) B(H5D10Y16L17) DPI A-COOH): 840% and 1080%
IGF-1 Receptor % IGF (IGF-1 receptor [5]; Table 10): 181.395%
EC50 (IGF-1 receptor [5]; [9]): 0.43 nM
IGF-1 Receptor % IGF-1 (in test) (IGF-1 receptor [3]): 12.9%
Ratio (insulin receptor [4]): 80.6
Insulin Receptor % insulin (in test) (insulin receptor [4]): 1576.7% and 1667.0%

CC[C@H](C)[C@H](NC(=O)CN)C(=O)N[C@H](C(=O)N[C@@H](CC(=O)O)C(=O)N[C@@H](CCC(=O)O)C(=O)N[C@H]1CSSC[C@@H]2NC(=O)[C@H](CO)NC(=O)[C@H](CCCNC(=N)N)NC(=O)[C@H](Cc3ccccc3)NC(=O)[C@H](CSSC[C@H](NC(=O)[C@H](CC(C)C)NC(=O)[C@@H](NC(=O)[C@H](CCC(=O)O)NC(=O)[C@@H]3CCCN3C(=O)CN)[C@@H](C)O)C(=O)NCC(=O)N[C@@H](C)C(=O)N[C@@H](CC(=O)O)C(=O)N[C@@H](CC(C)C)C(=O)N[C@@H](C(C)C)C(=O)N[C@@H](CC(=O)O)C(=O)N[C@@H](C)C(=O)N[C@@H](CC(C)C)C(=O)N[C@@H](Cc3ccc(O)cc3)C(=O)N[C@@H](CC(C)C)C(=O)N[C@@H](C(C)C)C(=O)N[C@H](C(=O)NCC(=O)N[C@@H](CC(=O)O)C(=O)N[C@@H](CCCNC(=N)N)C(=O)NCC(=O)N[C@@H](Cc3ccccc3)C(=O)N[C@@H](Cc3ccc(O)cc3)C(N)=O)CSSC[C@@H](C(=O)N[C@@H](C)C(=O)O)NC(=O)[C@H](Cc3ccc(O)cc3)NC(=O)[C@H](CCSC)NC(=O)[C@H](CCC(=O)O)NC(=O)[C@H](CC(C)C)NC(=O)[C@H](CCCNC(=N)N)NC(=O)[C@H](CCCNC(=N)N)NC(=O)[C@H](CC(C)C)NC(=O)[C@H](CC(=O)O)NC2=O)NC1=O)C(C)C [IGF-1 A:B(D10Y16L17) DPI A-COOH]
Insulin Receptor % Insulin (insulin receptor [2]): 1575%
IGF-1 Receptor % IGF (IGF-1 receptor [5]; Table 10): 111.538%
EC50 (IGF-1 receptor [5]; [9]): 0.78 nM
IGF-1 Receptor % IGF-1 (in test) (IGF-1 receptor [3]): 7.7%

CC[C@H](C)[C@H](NC(=O)CN)C(=O)N[C@H](C(=O)N[C@@H](CC(=O)O)C(=O)N[C@@H](CCC(=O)O)C(=O)N[C@H]1CSSC[C@@H]2NC(=O)[C@H](CO)NC(=O)[C@H](CCCNC(=N)N)NC(=O)[C@H](Cc3ccccc3)NC(=O)[C@H](CSSC[C@H](NC(=O)[C@H](CC(C)C)NC(=O)[C@@H](NC(=O)[C@H](CCC(=O)O)NC(=O)[C@@H]3CCCN3C(=O)CN)[C@@H](C)O)C(=O)NCC(=O)N[C@@H](C)C(=O)N[C@@H](CCC(=O)O)C(=O)N[C@@H](CC(C)C)C(=O)N[C@@H](C(C)C)C(=O)N[C@@H](CC(=O)O)C(=O)N[C@@H](C)C(=O)N[C@@H](CC(C)C)C(=O)N[C@@H](Cc3ccc(O)cc3)C(=O)N[C@@H](CC(C)C)C(=O)N[C@@H](C(C)C)C(=O)N[C@H](C(=O)NCC(=O)N[C@@H](CC(=O)O)C(=O)N[C@@H](CCCNC(=N)N)C(=O)NCC(=O)N[C@@H](Cc3ccccc3)C(=O)N[C@@H](Cc3ccc(O)cc3)C(=O)N[C@@H](Cc3ccccc3)C(=O)N[C@@H](CC(N)=O)C(=O)N[C@@H](CCCCN)C(=O)N3CCC[C@H]3C(=O)N[C@H](C(N)=O)[C@@H](C)O)CSSC[C@@H](C(=O)N[C@@H](C)C(N)=O)NC(=O)[C@H](Cc3ccc(O)cc3)NC(=O)[C@H](CCSC)NC(=O)[C@H](CCC(=O)O)NC(=O)[C@H](CC(C)C)NC(=O)[C@H](CCCNC(=N)N)NC(=O)[C@H](CCCNC(=N)N)NC(=O)[C@H](CC(C)C)NC(=O)[C@H](CC(=O)O)NC2=O)NC1=O)C(C)C [IGF-1 A:B(E10Y16L17)]
Insulin Receptor % Insulin (insulin receptor [2]): 49.2%
IGF-1 Receptor % IGF (IGF-1 receptor [5]; Table 10): 13%
IGF-1 Receptor % IGF-1 (in test) (IGF-1 receptor [3]): 6.8% and 5.0%
Ratio (insulin receptor [4]): 11.9
Insulin Receptor % insulin (in test) (insulin receptor [4]): 58.7% and 98.8%
Insulin Receptor % native insulin activity (0.6 nM) (insulin receptor [4]): 90.9% and 117.6%

B1: DP20LysC: DP20 cleaved at the lysine of CTP to produce a two chain insulin (protein)
chain 1: GPEHLCGAHLVDALYLVCGDRGFYSSSSRAPPPSLPSPSRLPGPSDTPILPQK
chain 2: GIVDECCHRSCDLRRLENYCN
EC50 [1, 8]: 8.19 nM
in vitro phosphorylation activity at the insulin subtype A receptor (result in words) [6]: potency similar to native insulin
EC50 (IGF-1 receptor [5]; Table 15, read-out: Receptor Phosphorylation IGF-IR EC50): 13.3 nM
EC50 (IGF-1 receptor [3]; Table 15, read-out: Receptor Binding IGR-1R EC50): 50 nM
EC50 ([7]; Table 15, read-out: Receptor Phosphorylation IR-B EC50): 1.33 nM
EC50 ([7]; read-out: EC50 values (in nM), phosphorylation at the insulin subtype B receptor, experiment of FIG. 18B): 2.44 ± 1.3 nM
